Measurements published in patent publication US11427594B2, “Non brain penetrant A2A inhibitors and methods for use in the treatment of cancers” (iTeos Belgium SA, priority 2018, dated 2022).
Like-named read-outs stand apart in the source and are kept apart here.

Tests used:
[1] = Permeability and efflux in Caco-2 cells; format: in vitro ADME; settings: human, Caco-2 monolayer, bidirectional transport, pH 7.4
Experimental: The transport buffer (TB, pH 7.4) used in the study is Hank's Buffered Saline Solution (HBSS, Gibco, Cat #14025-076) with 10 mM HEPES at pH 7.4. Fetal bovine serum (FBS) (Corning, Cat #Corning-35-076-CV, or other vendors), Minimum Essential Media (MEM) (Gibco, Cat #41500-034) as well as its supplements are purchased from Invitrogen (Carlsbad, Calif., USA). Caco-2 cell line (Cat #HTB-37) is purchased from the ATCC (Rockville, Md., USA). The organic solvents used in the study are purchased from Sigma Aldrich (St. Louis, Mo., USA). For reference compounds (fenoterol, propranolol and digoxin) and test compounds, 0.4 mM intermediate solutions are prepared by diluting 10 mM or other appropriate concentrations of DMSO stock solutions with DMSO. 2 μM dosing solutions for reference compounds and test compounds are prepared by spiking the appropriate volume of intermediate solution to TB with and without 1 μM Zosuquidar. The final concentration of DMSO is no more than 1% (v/v). Caco-2 cells are grown in MEM supplemented with 2 mM L-glutamine, 10% FBS, 100 U/mL penicillin-G and 100 μg/mL streptomycin. The cells are incubated at 37° C., 5% CO2 and relatively saturated humidity. After reaching 80-90% confluency, the cells are gently detached with 0.05% trypsin-EDTA solution. Cells at passage 30-50 are seeded on the 96-well BD insert system (Cat #359274) at the density of 1×10^5 cells/cm2 and cultured for 21-28 days with medium changed every 4-5 days. TB and dosing solutions were pre-warmed to 37° C. before transport assay. The cell monolayer was washed twice with HBSS containing 10 mM HEPES. For A-B (apical to basolateral) directional transport assay, 75 μL dosing solution is added to the apical well. Fill each basolateral well with 250 μL TB. For B-A (basolateral to apical) directional transport assay, 250 μL of dosing solution is added to the basolateral well after filling each apical well with 75 μL TB. Test compound(s) and digoxin are tested at 2 μM in the presence or absence of 1 μM zosuquidar bidirectionally in duplicate. Atenolol and propranolol are tested at 2 μM in the absence of zosuquidar in A to B direction in duplicate. The plates are incubated for 120 minutes at 37° C. with 5% C02 and saturated humidity. The time zero samples are generated by mixing 50 μL initial dosing solution of test compound or reference compound with 100 μL TB and 250 μL quench solution (acetonitrile (ACN) or other appropriate solvent with internal standard(s), based on the bioanalytical method development). At 120 minutes, 150 μL of solution is collected from each A-B receiver well followed by addition of 250 μL quench solution to get A-B receiver sample. And for other samples (A-B donor, B-A donor and receiver), 50 μL of solution is collected from each corresponding well followed by addition of 250 μL quench solution and 100 μL TB. All samples are vortex-mixed and centrifuged at 3220 g for 20 minutes. Subsequently, supernatant is diluted with ultra pure water for LC-MS/MS analysis. The concentrations of test compound in all samples are determined by LC-MS/MS and expressed as peak area ratio of analyte to internal standard. The concentration of samples is expressed using the peak area ratio of Analyte to Internal Standard (Analyte/IS). The apparent permeability coefficient (Papp) is calculated using the following equation: Papp=VR/(Area*Time)*(CR/C0) wherein VR is the solution volume in the receiver chamber (0.075 mL on the apical side, 0.25 mL on the basolateral side); Area is the surface area for the transport, i.e. 0.0804 cm2 for the area of the monolayer; Time is incubation time, expressed in seconds, 2 h=2×3600 s; C0 is the initial concentration in the donor chamber; CR is the final concentrations in receiver chamber. The efflux ratio is calculated using the following equation: Efflux ratio=[…]) where Papp (A-B) and Papp (B-A) are the Papp values of compound in Apical to Basolateral and Basolateral to Apical directional transport, respectively.

A2A receptor = biological target: T1, A2A receptor (Homo sapiens, UniProt P29274); experiment: Inhibition of cAMP production in HEK cells (LANCE Ultra cAMP, TR-FRET); format: cell-based; settings: HEK-293 cells with stable transfection of A2A receptor
T1 construct: host or cells: HEK-293
T1 sequence (P29274 whole entry): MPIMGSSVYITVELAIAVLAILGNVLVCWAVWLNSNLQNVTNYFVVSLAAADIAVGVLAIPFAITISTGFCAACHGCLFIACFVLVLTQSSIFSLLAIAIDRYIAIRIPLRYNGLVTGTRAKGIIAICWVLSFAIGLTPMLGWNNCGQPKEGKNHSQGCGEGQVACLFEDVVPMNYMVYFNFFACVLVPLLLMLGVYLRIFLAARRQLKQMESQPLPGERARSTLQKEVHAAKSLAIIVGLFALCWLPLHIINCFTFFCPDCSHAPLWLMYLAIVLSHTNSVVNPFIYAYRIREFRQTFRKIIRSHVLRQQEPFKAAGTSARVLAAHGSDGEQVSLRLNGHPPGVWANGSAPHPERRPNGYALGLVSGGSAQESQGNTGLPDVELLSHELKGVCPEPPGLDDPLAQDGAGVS
Experimental: When the A2A receptor is activated, is induces the production of cAMP. The present assay thus aims at showing that cAMP production is inhibited in HEK cells in response to their exposure to the compounds of the invention. HEK-293 cells with a stable transfection of A2A receptor were bought from PerkinElmer® (#ES-011-C). Cells were cultured in EMEM medium (Lonza, #BE12-611F) supplemented with 10% FBS (Lonza, #DE14-801F) and 200 μg/mL of G418 (Tocris, #4131) at 37° C. and 5% CO2. Fresh media without the selection marker was added on the day immediately before the experiment to stop selection pressure. cAMP inhibition and antagonist IC50 determination were accessed using the LANCE® Ultra cAMP Kit from PerkinElmer® (#TRF0262) on white half area 96 well plates (PerkinElmer®, #6005560). The assays were conducted in two different stimulation buffers: • a) normal with 1×HBSS (Gibco®, #141750-95), 5 mM HEPES (Lonza, #BE17-737E), 0.1% BSA and 25 μM Rolipram and • b) HSA with 1×HBSS (Gibco®, #141750-95), 5 mM HEPES (Lonza, #BE17-737E), 2% Human Serum Albumin (Sigma-Aldrich®—A1653), 30 μM of EHNA (Tocris—#1261) and 100 μM Rolipram. Stimulation buffer b) mimics the human situation by increasing the amount of albumin present in the assay. Compounds of the present invention were diluted 100× in either of the buffers depending on the assay performed. A total of 1000 cells per well were pre-incubated for 10 minutes with the compounds of the present invention before adding the corresponded EC80 of A2A agonist (3 nM of NECA in normal buffer) or 5 μM of Adenosine (in HAS buffer) for a total reaction time of 30 minutes. The total volume of the reaction was 20 μl (10 μl of cells, 5 μl of antagonist and 5 μl of agonist). The reaction was finalized by adding 10 μl of 4×EU-cAMP tracer working solution and 10 μl of 4× ULight-anti-cAMP working solution. The TR-FRET signal was measured after 1 hour using a Spectramax Paradigm (Molecular Devices).

[2] = HSA stimulation buffer, 5 μM Adenosine as agonist, 2.0% HSA, read-out: IC50 (nM) (5 μM Adenosine as agonist, 2.0% HSA)
[3] = normal stimulation buffer, 3 nM NECA as agonist, 0.1% BSA, read-out: IC50 (nM) (3 nM NECA as agonist, 0.1% BSA)

| SMILES | efflux ratio at 120 min, 2 μM [1] | IC50 (A2A receptor; [2]) [nM] | IC50 (A2A receptor; [3]) [nM] |
| --- | --- | --- | --- |
| Nc1nc(NCCN2CCN(c3ccc(C(=O)N4CC[S+]([O-])CC4)cc3F)CC2)nc2nc(-c3ccco3)nn12 [Compound 18, (4-(4-(2-((7-amino-2-(furan-2-yl)-[1,2,4]triazolo[1,5-a][1,3,5]triazin-5-yl)amino)ethyl)piperazin-1-yl)-3-fluorophenyl)(1-oxidothiomorpholino)methanone] | > 80 | 632 | 0.5 |
| C[S@+]([O-])CCOc1cc(N2CCN(CCNc3nc(N)n4nc(-c5ccco5)nc4n3)CC2)c(F)cc1F [Compound 10, (S)—N5-(2-(4-(2,4-difluoro-5-(2-(methylsulfinyl)ethoxy)phenyl)piperazin-1-yl)ethyl)-2-(furan-2-yl)-[1,2,4]triazolo[1,5-a][1,3,5]triazine-5,7-diamine] | > 900 | 25 | 0.2 |
| Cn1c(=O)n(CCN2CCN(c3cc(OC4CCNC4=O)c(F)cc3F)CC2)c2nc(N)n3nc(-c4ccco4)nc3c21 (stereo not drawn) [Compound 21, 5-amino-3-(2-(4-(2,4-difluoro-5-((2-oxopyrrolidin-3-yl)oxy)phenyl)piperazin-1-yl)ethyl)-8-(furan-2-yl)-1-methyl-1H-[1,2,4]triazolo[5,1-i]purin-2(3H)-one] | > 150 | 178 | 0.4 |
| Nc1nc(NCCN2CCN(c3ccc(O[C@H]4CC[S@@+]([O-])CC4)cc3F)CC2)nc2nc(-c3ccco3)nn12 [Compound 19] | > 110 | 106 | 0.8 |
| CNC(=O)c1cc(N2CCN(CCn3c(=O)n(C)c4c3nc(N)n3nc(-c5ccco5)nc43)CC2)c(F)cc1F [Compound 3, 5-(4-(2-(5-amino-8-(furan-2-yl)-1-methyl-2-oxo-1H-[1,2,4]triazolo[5,1-i]purin-3(2H)-yl)ethyl)piperazin-1-yl)-2,4-difluoro-N-methylbenzamide] | 53 | 176 | 0.1 |
| CN(CCN1CCN(c2cc(OCC[S@@+](C)[O-])c(F)cc2F)CC1)c1nc(N)n2nc(-c3ccco3)nc2n1 [Compound 2, (R)—N5-(2-(4-(2,4-difluoro-5-(2-(methylsulfinyl)ethoxy)phenyl)piperazin-1-yl)ethyl)-2-(furan-2-yl)-N5-methyl-[1,2,4]triazolo[1,5-a][1,3,5]triazine-5,7-diamine] |  | 28 | 0.6 |
| CN(CCN1CCN(c2cc(OCCS(C)(=O)=O)c(F)cc2F)CC1)c1nc(N)n2nc(-c3ccco3)nc2n1 [Compound 5, N5-(2-(4-(2,4-difluoro-5-(2-(methylsulfonyl)ethoxy)phenyl)piperazin-1-yl)ethyl)-2-(furan-2-yl)-N5-methyl-[1,2,4]triazolo[1,5-a][1,3,5]triazine-5,7-diamine] | > 340 | 41 | 0.6 |
| C[S@@+]([O-])CCOc1cc(N2CCN(CCn3ncc4c3nc(N)n3nc(-c5ccco5)nc43)CC2)c(F)cc1F [Compound 13, (R)-7-(2-(4-(2,4-difluoro-5-(2-(methylsulfinyl)ethoxy)phenyl)piperazin-1-yl)ethyl)-2-(furan-2-yl)-7H-pyrazolo[4,3-e][1,2,4]triazolo[1,5-c]pyrimidin-5-amine] | > 100 | 131 | 0.5 |
| CS(=O)(=O)CCOc1cc(N2CCN(CCNc3nc(N)n4nc(-c5ccco5)nc4n3)CC2)c(F)cc1F [Compound 6, N5-(2-(4-(2,4-difluoro-5-(2-(methylsulfonyl)ethoxy)phenyl)piperazin-1-yl)ethyl)-2-(furan-2-yl)-[1,2,4]triazolo[1,5-a][1,3,5]triazine-5,7-diamine] |  | 63 | 0.9 |
| C[S@+]([O-])c1cc(N2CCN(CCNc3nc(N)n4nc(-c5ccco5)nc4n3)CC2)c(F)cc1F [Compound 17, (S)—N5-(2-(4-(2,4-difluoro-5-(methylsulfinyl)phenyl)piperazin-1-yl)ethyl)-2-(furan-2-yl)-[1,2,4]triazolo[1,5-a][1,3,5]triazine-5,7-diamine] |  | 201 | 1.8 |
| C[S@@+]([O-])c1cc(N2CCN(CCNc3nc(N)n4nc(-c5ccco5)nc4n3)CC2)c(F)cc1F [Compound 16, (R)—N5-(2-(4-(2,4-difluoro-5-(methylsulfinyl)phenyl)piperazin-1-yl)ethyl)-2-(furan-2-yl)-[1,2,4]triazolo[1,5-a][1,3,5]triazine-5,7-diamine] |  | 73 | 7.4 |
| Nc1nc(NCCN2CCN(c3cc(N4CC[S+]([O-])CC4)c(F)cc3F)CC2)nc2nc(-c3ccco3)nn12 [Compound 15, 4-(5-(4-(2-((7-amino-2-(furan-2-yl)-[1,2,4]triazolo[1,5-a][1,3,5]triazin-5-yl)amino)ethyl)piperazin-1-yl)-2,4-difluorophenyl)thiomorpholine 1-oxide] |  | 81 | 1.7 |
| CN(CCN1CCN(c2cc(OCC[S@+](C)[O-])c(F)cc2F)CC1)c1nc(N)n2nc(-c3ccco3)nc2n1 [Compound 1, (S)—N5-(2-(4-(2,4-difluoro-5-(2-(methylsulfinyl)ethoxy)phenyl)piperazin-1-yl)ethyl)-2-(furan-2-yl)-N5-methyl-[1,2,4]triazolo[1,5-a][1,3,5]triazine-5,7-diamine] |  | 33 | 0.4 |
